pIC50: −log10 of the molar value. Read-outs that look alike come from different tables or passages of the source.
Key:
CHI Log D procedure = assay type: physicochemical; conditions: for chromatographic logD: pH 7.4, CHI Log D
[1] = biological target: T1, full-length beta-Catenin (Uniprot ID P35222) (Homo sapiens, UniProt P35222); assay: Fluorescence polarization IC50 (beta-catenin / 5FAM-TCF4 10-53 competition); assay type: binding
T1 construct: 10 nM full-length beta-Catenin (Uniprot ID P35222)
T1 sequence (P35222 1-781): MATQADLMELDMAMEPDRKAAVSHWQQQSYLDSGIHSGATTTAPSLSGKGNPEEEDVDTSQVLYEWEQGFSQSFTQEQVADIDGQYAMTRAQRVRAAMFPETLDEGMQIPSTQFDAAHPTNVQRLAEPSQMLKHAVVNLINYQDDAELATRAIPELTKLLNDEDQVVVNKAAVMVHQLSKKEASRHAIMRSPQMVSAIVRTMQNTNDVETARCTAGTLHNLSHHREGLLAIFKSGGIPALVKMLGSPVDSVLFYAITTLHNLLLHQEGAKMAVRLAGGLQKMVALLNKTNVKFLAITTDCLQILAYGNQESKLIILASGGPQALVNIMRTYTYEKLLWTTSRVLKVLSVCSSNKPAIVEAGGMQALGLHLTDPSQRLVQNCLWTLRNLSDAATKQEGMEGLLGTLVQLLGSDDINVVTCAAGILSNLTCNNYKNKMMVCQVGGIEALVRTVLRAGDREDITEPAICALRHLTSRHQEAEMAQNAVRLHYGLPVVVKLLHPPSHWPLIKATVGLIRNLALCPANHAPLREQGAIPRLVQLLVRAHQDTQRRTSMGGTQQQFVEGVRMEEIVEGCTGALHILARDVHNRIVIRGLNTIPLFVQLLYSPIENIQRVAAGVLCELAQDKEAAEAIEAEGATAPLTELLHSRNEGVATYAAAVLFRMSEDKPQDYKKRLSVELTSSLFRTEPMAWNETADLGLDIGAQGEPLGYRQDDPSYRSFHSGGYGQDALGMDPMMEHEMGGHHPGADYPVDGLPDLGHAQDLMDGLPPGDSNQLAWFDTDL

[2] = fluorescence polarization, read-out: beta-Catenin FP IC50

| Structure (SMILES) | chromatographic logD (CHI Log D procedure) | pIC50 [1, 2] | CHI Log D (CHI Log D procedure; pH 7.4) | pIC50 ([1]; read-out: FP EC50) | also measured |
| --- | --- | --- | --- | --- | --- |
| CCCC[C@@H]1NC(=O)[C@H](C)NC(=O)[C@H](CCC(=O)O)NC(=O)[C@H](CC(=O)O)NC(=O)C2(CCCC=CCCCCCC[C@@](C)(C(=O)N[C@@H](Cc3ccccc3)C(=O)N[C@@H](Cc3csc4ccccc34)C(=O)N[C@@H](CCC(N)=O)C(N)=O)NC(=O)[C@H](CCC(N)=O)NC(=O)[C@H](Cc3ccccc3)NC1=O)CCCC=CC[C@]1(CCCN1C(C)=O)C(=O)N[C@@H](CC(=O)O)C(=O)N[C@@H]([C@@H](C)CC)C(=O)N2 (stereo partly drawn) [I-667, Ac-PL3-Asp-Ile-B5-Asp-Glu-Ala-nLeu-Phe-Gln-S8-Phe-BztA-Gln-NH2] | – | 6.23 | 2.88 | 6.23 | – |
| CC(=O)N1CCC[C@]12CC=CCCCC1(CCCC=CCCCCCC[C@@](C)(C(=O)N[C@@H](Cc3cccc(F)c3)C(=O)N[C@@H](Cc3csc4ccccc34)C(=O)N[C@@H](CCC(N)=O)C(N)=O)NC(=O)[C@H](C(C)C)NC(=O)[C@H](Cc3ccccc3)NC(=O)[C@H](C)NC(=O)[C@H](C)NC(=O)[C@H](Cc3cccs3)NC(=O)[C@H](CC(=O)O)NC1=O)NC(=O)[C@H](C)NC(=O)[C@H](CC(=O)O)NC2=O (stereo partly drawn) [I-402, Ac-PL3-Asp-Ala-B5-Asp-2Thi-Ala-Ala-Phe-Val-S8-3FF-BztA-Gln-NH2] | 3.39 | 5.30 | – | – | – |
| CC[C@H](C)[C@@H]1NC(=O)[C@H](CNS(=O)(=O)C(F)(F)F)NC(=O)[C@]2(CC=CCCCC3(CCCC=CCCCCCC[C@@](C)(C(=O)N[C@@H](Cc4ccccc4)C(=O)N[C@@H](Cc4csc5ccccc45)C(=O)N[C@@H](CCC(N)=O)C(N)=O)NC(=O)[C@H](CCC(N)=O)NC(=O)[C@H](Cc4ccccc4)NC(=O)[C@H](C)NC(=O)[C@H](C)NC(=O)[C@H](CCC(=O)O)NC(=O)[C@H](CC(=O)O)NC3=O)NC1=O)CCCN2C(C)=O (stereo partly drawn) [I-632, Ac-PL3-[Tf]Dap-Ile-B5-Asp-Glu-Ala-Ala-Phe-Gln-S8-Phe-BztA-Gln-NH2] | 3.15 | 5.30 | – | – | – |
| CC[C@H](C)[C@@H]1NC(=O)[C@H](CC(=O)O)NC(=O)[C@]2(CC=CCCCC3(CCCC=CCCCCCC[C@@](C)(C(=O)N[C@@H](Cc4ccccc4)C(=O)N[C@@H](Cc4csc5ccccc45)C(=O)N[C@@H](CCC(N)=O)C(N)=O)NC(=O)[C@H](CCC(N)=O)NC(=O)[C@H](Cc4ccccc4)NC(=O)[C@H](C)NC(=O)[C@H](C)NC(=O)[C@H](CN(CC)CC(=O)O)NC(=O)[C@H](CC(=O)O)NC3=O)NC1=O)CCCN2C(C)=O (stereo partly drawn) [I-609, Ac-PL3-Asp-Ile-B5-Asp-EtGa-Ala-Ala-Phe-Gln-S8-Phe-BztA-Gln-NH2] | – | 7.10 | 2.534 | 7.10 | logD (CHI Log D procedure; pH 7.4): 2.5; pIC50 ([1]; read-out: bCat FP IC50): 7.10 |
| CC[C@H](C)[C@@H]1NC(=O)[C@H](CC(=O)O)NC(=O)[C@]2(CC=CCCCC3(CCCC=CCCCCCC[C@@](C)(C(=O)N[C@@H](Cc4ccccc4)C(=O)N[C@@H](Cc4csc5ccccc45)C(=O)N[C@@H](Cc4c[nH]cn4)C(N)=O)NC(=O)[C@H](CC(N)=O)NC(=O)[C@H](Cc4ccccc4)NC(=O)[C@H](C)NC(=O)[C@H](C)NC(=O)[C@H](CC(=O)O)NC(=O)[C@H](CC(=O)O)NC3=O)NC1=O)CCCN2C(C)=O (stereo partly drawn) [I-469, Ac-PL3-Asp-Ile-B5-Asp-Asp-Ala-Ala-Phe-Asn-S8-Phe-BztA-His-NH2] | – | 7.57 | 2.354 | 7.57 | – |
| CC[C@H](C)[C@@H]1NC(=O)[C@H](CC(=O)O)NC(=O)[C@]2(CC=CCCCC3(CCCC=CCCCCCC[C@@](C)(C(=O)N[C@@H](Cc4ccccc4)C(=O)N[C@@H](Cc4csc5ccccc45)C(=O)N[C@@H](CCC(N)=O)C(N)=O)NC(=O)[C@H](CCC(N)=O)NC(=O)[C@H](Cc4ccccc4)NC(=O)[C@H](C)NC(=O)[C@H](CCCCNC(=O)CN=[N+]=[N-])NC(=O)[C@H](CCC(=O)O)NC(=O)[C@H](CC(=O)O)NC3=O)NC1=O)CCCN2C(C)=O (stereo partly drawn) [I-592, Ac-PL3-Asp-Ile-B5-Asp-Glu-[AzAc]Lys-Ala-Phe-Gln-S8-Phe-BztA-Gln-NH2] | – | – | 2.414 | 7.62 | – |
| CC(=O)N1CCC[C@]12CC=CCCCC1(CCCC=CCCCCCC[C@@](C)(C(=O)N[C@@H](Cc3cccc(F)c3)C(=O)N[C@@H](Cc3csc4ccccc34)C(=O)N[C@@H](CCC(N)=O)C(N)=O)NC(=O)[C@H](CCC(N)=O)NC(=O)[C@H](Cc3ccccc3)NC(=O)[C@H](C)NC(=O)[C@H](C)NC(=O)[C@H](Cc3c[nH]cn3)NC(=O)[C@H](CC(=O)O)NC1=O)NC(=O)[C@H](C)NC(=O)[C@H](CC(=O)O)NC2=O (stereo partly drawn) [I-399, Ac-PL3-Asp-Ala-B5-Asp-His-Ala-Ala-Phe-Gln-S8-3FF-BztA-Gln-NH2] | 2.52 | 5.60 | – | – | – |
| CC[C@H](C)[C@@H]1NC(=O)[C@H](CC(=O)O)NC(=O)[C@]2(CC=CCCCC3(CCCC=CCCCCCC[C@@](C)(C(=O)N[C@@H](Cc4ccccc4)C(=O)N[C@@H](Cc4csc5ccccc45)C(=O)N[C@@H](CCC(N)=O)C(N)=O)NC(=O)[C@H](CCC(N)=O)NC(=O)[C@H](Cc4ccccc4)NC(=O)[C@H](C)NC(=O)[C@H](C)NC(=O)[C@H](CCC(=O)O)NC(=O)C[C@@H](C(=O)O)NC3=O)NC1=O)CCCN2C(C)=O (stereo partly drawn) [I-673, Ac-PL3-Asp-Ile-B5-isoAsp-Glu-Ala-Ala-Phe-Gln-S8-Phe-BztA-Gln-NH2] | 1.87 | 5.30 | – | – | – |
| CC(=O)N1CCC[C@]12CC=CCCCC1(CCCC=CCCCCCC[C@@](C)(C(=O)N[C@@H](Cc3ccccc3)C(=O)N[C@@H](Cc3csc4ccccc34)C(=O)N[C@@H](CCC(N)=O)C(N)=O)NC(=O)[C@H](CC(N)=O)NC(=O)[C@H](Cc3ccccc3)NC(=O)[C@H](C)NC(=O)[C@H](C)NC(=O)[C@H](CC(=O)O)NC(=O)[C@H](CC(=O)O)NC1=O)NC(=O)[C@H](C(C)C)NC(=O)[C@H](CC(=O)O)NC2=O (stereo partly drawn) [I-566, Ac-PL3-Asp-Val-B5-Asp-Asp-Ala-Ala-Phe-Asn-S8-Phe-BztA-Gln-NH2] | – | 7.12 | 2.175 | 7.12 | – |

Second part, led by results:

| chromatographic logD (CHI Log D procedure) | pIC50 [1, 2] | CHI Log D (CHI Log D procedure; pH 7.4) | pIC50 ([1]; read-out: FP EC50) | Structure (SMILES) | also measured |
| --- | --- | --- | --- | --- | --- |
| 2.4 | 5.73 | – | – | CC(=O)N1CCC[C@]12CC=CCCCC1(CCCC=CCCCCCC[C@@](C)(C(=O)N[C@@H](Cc3cccc(F)c3)C(=O)N[C@@H](Cc3csc4ccccc34)C(=O)N[C@@H](CCC(N)=O)C(N)=O)NC(=O)[C@H](CCC(N)=O)NC(=O)[C@H](Cc3cccc(C)c3)NC(=O)[C@H](C)NC(=O)[C@H](C)NC(=O)[C@H](CN(CC(=O)O)CC(F)(F)F)NC(=O)[C@H](CC(=O)O)NC1=O)NC(=O)[C@H](C)NC(=O)[C@H](CC(=O)O)NC2=O (stereo partly drawn) [I-404, Ac-PL3-Asp-Ala-B5-Asp-TfeGA-Ala-Ala-3MeF-Gln-S8-3FF-BztA-Gln-NH2] | – |
| – | – | 2.582 | 5.81 | CC(=O)N1CCC[C@]12CC=CCCCC1(CCCC=CCCCCCC[C@@](C)(C(=O)N[C@@H](Cc3ccccc3)C(=O)N[C@@H](Cc3csc4ccccc34)C(=O)N(C)[C@@H](CO)C(N)=O)NC(=O)[C@H](CC(N)=O)NC(=O)[C@H](Cc3ccccc3)NC(=O)[C@H](C)NC(=O)[C@H](C)NC(=O)[C@H](CCC(=O)O)NC(=O)[C@H](CC(=O)O)NC1=O)NC(=O)[C@H](CC(C)C)NC(=O)[C@H](CC(=O)O)NC2=O (stereo partly drawn) [I-759, Ac-PL3-Asp-Leu-B5-Asp-Glu-Ala-Ala-Phe-Asn-S8-Phe-BztA-NMeS-NH2] | pIC50 ([1]; read-out: beta-Catenin FP IC50): 5.81 |
| – | 6.36 | 2.722 | 6.36 | CC(=O)N1CCC[C@]12CC=CCCCC1(CCCC=CCCCCCC[C@@](C)(C(=O)N[C@@H](Cc3ccccc3)C(=O)N[C@@H](Cc3csc4ccccc34)C(=O)N[C@@H](CCC(N)=O)C(=O)NC(C)(C)C(N)=O)NC(=O)[C@H](CC(N)=O)NC(=O)[C@H](Cc3ccccc3)NC(=O)[C@H](C)NC(=O)[C@H](C)NC(=O)[C@H](CCC(=O)O)NC(=O)[C@H](CC(=O)O)NC1=O)NC(=O)[C@H](CC(C)C)NC(=O)[C@H](CC(=O)O)NC2=O (stereo partly drawn) [I-736, Ac-PL3-Asp-Leu-B5-Asp-Glu-Ala-Ala-Phe-Asn-S8-Phe-BztA-Gln-Aib-NH2] | – |
| – | – | 2.083 | – | CC(=O)N1CCC[C@]12CC=CCCCC1(CCCC=CCCCCCC[C@@](C)(C(=O)N[C@@H](Cc3ccccc3)C(=O)N[C@@H](Cc3c[nH]c4ccccc34)C(=O)N[C@@H](C)C(N)=O)NC(=O)[C@H](C)NC(=O)[C@H](Cc3ccccc3)NC(=O)[C@H](C)NC(=O)[C@H](C)NC(=O)[C@H](CCC(=O)O)NC(=O)[C@H](CC(=O)O)NC1=O)NC(=O)[C@H](C)NC(=O)[C@H](CC(=O)O)NC2=O (stereo partly drawn) [I-187, Ac-PL3-Asp-Ala-B5-Asp-Glu-Ala-Ala-Phe-Ala-S8-Phe-Trp-Ala-NH2] | pIC50 ([1]; Table E2-1, read-out: beta-Catenin FP IC50): 5.48; pIC50 ([1]; fluorescence polarization, beta-catenin, read-out: FP EC50): 5.48 |
| – | – | 2.546 | 7.19 | CC(=O)N1CCC[C@]12CC=CCCCC1(CCCC=CCCCCCC[C@@](C)(C(=O)N[C@@H](Cc3ccccc3)C(=O)N[C@@H](Cc3csc4ccccc34)C(=O)N[C@H](CC(N)=O)C(N)=O)NC(=O)[C@H](CC(N)=O)NC(=O)[C@H](Cc3ccccc3)NC(=O)[C@H](C)NC(=O)[C@H](C)NC(=O)[C@H](CCC(=O)O)NC(=O)[C@H](CC(=O)O)NC1=O)NC(=O)[C@H](CC(C)C)NC(=O)[C@H](CC(=O)O)NC2=O (stereo partly drawn) [I-757, Ac-PL3-Asp-Leu-B5-Asp-Glu-Ala-Ala-Phe-Asn-S8-Phe-BztA-dAsn-NH2] | pIC50 ([1]; read-out: beta-Catenin FP IC50): 7.19 |
